# Experimental data: US7276511B2, “Benzylamine derivative” (Zeria Pharmaceutical Co., Ltd., priority 2003, dated 2007)
# Structures can show the parent of a compound that is named as a salt. Where two headings read alike, the source gives them in different places.
# Experiments:
# [1] = target: T1, Cloned Neurokinin Receptor Subtype 2 Human (Homo sapiens, UniProt P21452); assay: NK-2 receptor-binding experiment ([3H]-SR48968, CHO cell membranes); settings: Table 4; inhibition of [3H]-SR48968 (0.85 nM) binding, pseudo-Hill analysis
# T1 construct: purchased Biosignal Packard; host or cells: CHO cells
# T1 sequence (P21452 1-398): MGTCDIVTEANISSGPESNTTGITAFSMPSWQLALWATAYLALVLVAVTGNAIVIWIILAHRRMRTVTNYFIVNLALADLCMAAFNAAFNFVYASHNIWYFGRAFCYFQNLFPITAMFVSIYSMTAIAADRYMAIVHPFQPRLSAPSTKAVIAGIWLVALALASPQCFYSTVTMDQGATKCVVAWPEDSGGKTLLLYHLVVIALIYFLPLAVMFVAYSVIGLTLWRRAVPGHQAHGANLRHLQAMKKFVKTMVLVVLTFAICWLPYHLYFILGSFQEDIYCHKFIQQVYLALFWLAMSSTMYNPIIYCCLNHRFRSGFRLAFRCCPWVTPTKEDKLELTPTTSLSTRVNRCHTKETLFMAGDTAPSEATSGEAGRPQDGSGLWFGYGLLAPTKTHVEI
# Method: 2. NK-2 Receptor-binding Experiment
# Cloned Neurokinin Receptor Subtype 2 Human (CHO cells, Biosignal Packard), [^3H]-SR48968 (Amersham, final concentration 0.85 nM), and a test compound were mixed with 20 mM HEPES buffer, and the mixture was incubated for 50 minutes at 27° C. After completion of incubation, membrane components were collected by means of an automatic filtration apparatus (Brandel) onto a GF/C glass fiber filter (Whatman).
# Before use, in order to prevent non-specific binding, the glass fiber filter had been pre-treated with 0.1% polyethylene imine solution for about 4 hours.
# The filter employed to collect the membrane components was transferred to a plastic vial containing UltimaGold MV (5 mL), and measured by means of a liquid scintillation counter (Packard, 2000CA) in terms of the radioactivity.
# (§1) Percent radioactive ligand-receptor binding inhibition of each test compound was calculated by use of the following equation, and IC50 (nM) was determined through pseudo-Hill analysis.
# (§2) Percent inhibition (%)=[1−(C−A)/(B−A)]×100
# (§3) A: Radioactivity attributed to non-specific binding
# (§4) B: Radioactivity without test compound
# (§5) C: Radioactivity with test compound
# [2] = target: T2, NK-1 receptor (Homo sapiens, UniProt P25103); assay: NK-1 receptor-binding test ([3H]-Substance P, hNK1-CHO cells); parameters: expressed in transfected cells; host or cells: CHO-K1 cells (ATCC: CCL-61), G418-resistant, hNK1-CHO
# Method: 1. NK-1 Receptor-binding Test
# 1) Preparation of Human NK-1 Receptor Expression Cells
# FuGene 6 transfection reagent (Boegringer Mannheim) (3 μL) was diluted in an F-12 culture broth (97 μL), and pCR3.1 plasmid to which human NK-1 receptor cDNA had been introduced (Invitrogen) (10 μL) was added thereto. The mixture was mixed and incubated for 15 minutes (transfection reagent). CHO-K1 cells (ATCC: CCL-61) were cultured for 24 hours, and the whole reagent prepared above was added to the cultured CHO-K1 cells ([…]). Subsequently, culture was performed in the presence of G418 (Stratagene), and the resistant cells were employed as cells into which human NK-1 receptor gene was introduced (hNK1-CHO).
# 2) Subcultivation of hNK1-CHO Cells
# The hNK1-CHO cells were treated with trypsin-EDTA and subcultivated in an F-12 culture broth (containing 10% fetal bovine serum, 10 mM HEPES, 100 U/mL, penicillin, 100 μg/mL streptmycin, 400 μg/mL G418) in a 75-cm^2 flask (FALCON). Cells to be employed in the receptor-binding experiment were added to a 24-well plate (IWAKI) at 1×10^5 cells/well, and subcultured for 48 hours at 37° C. under 95% […] and 5% CO2.
# 3) Receptor-binding Experiment
# When the hNK1-CHO cells became subconfluent on the 24-well plate, an F-12 culture broth (containing 10 mM HEPES and 0.1% fetal bovine serum) (450 μL), [^3H]-Substance P (Amersham, final concentration 0.5 nM), and a test compound were added to the cells, and the mixture was incubated for 40 minutes at 37° C. For the measurement of non-specific binding, L703606 (Sigma) was added instead of the test compound. After completion of incubation, the mixture was washed with ice-cooled phosphate buffered saline containing 0.1% fetal bovine serum, and the cells were lysed with 1N NaOH (0.5 mL). The lysate was transfered to a plastic vial containing UltimaGold MV (5 mL), and the radioactivity was determined by means of a liquid liquid scintillation counter (Packard, 2000CA).
# as §1, §2, §3, §4, §5
# Target sequence in this assay (P25103 whole entry): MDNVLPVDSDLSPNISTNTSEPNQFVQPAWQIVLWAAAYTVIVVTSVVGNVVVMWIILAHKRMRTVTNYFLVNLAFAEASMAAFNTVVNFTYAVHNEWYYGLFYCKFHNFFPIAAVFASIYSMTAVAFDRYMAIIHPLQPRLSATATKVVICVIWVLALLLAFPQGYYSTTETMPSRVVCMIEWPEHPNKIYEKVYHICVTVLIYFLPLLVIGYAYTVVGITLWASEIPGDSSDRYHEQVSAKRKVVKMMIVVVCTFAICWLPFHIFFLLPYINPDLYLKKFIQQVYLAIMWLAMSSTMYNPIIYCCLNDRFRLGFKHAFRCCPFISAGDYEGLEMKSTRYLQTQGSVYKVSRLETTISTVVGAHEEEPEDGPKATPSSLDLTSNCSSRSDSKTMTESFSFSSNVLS
# [3] = target: T2, NK-1 receptor; settings: known from Patent Document 4; cited from earlier work
# Target sequence in this assay (P25103 whole entry, species assumed): as the sequence (P25103 whole entry) above
# [4] = target: T3, NK-2 receptor (Homo sapiens, UniProt P21452); settings: in vitro for (B); known from Patent Documents 2 and 4; cited from earlier work
# T3 sequence (P21452 1-398): T1 sequence (P21452 1-398)
# [5] = Table 4, inhibition of [3H]-Substance P (0.5 nM) binding to hNK1-CHO cells, pseudo-Hill analysis, read-out: NK-1
SMILES,IC50 [1] [nM],"IC50 [2, 5] [nM]",antagonistic activity against NK-1 receptor [3],antagonistic activity against NK-2 receptor [4],IC50 [2] [nM]
"CN(C[C@](CCN1CCC2(CC1)NC(=O)Cc1ccccc12)(c1ccc(Cl)c(Cl)c1)N(C)C(=O)NC(c1ccccc1)c1ccccc1)C(=O)C(F)(F)F [Compound No. 46, 1-{1-(2,2,2-trifluoro-N-methylacetamide)-2-(S)-(3,4-dichlorophenyl)-4-[3-oxo-3,4-dihydro-2H-spiro(isoquinoline-1,4′-piperidin)-1′-yl]butan-2-yl}-3-benzhydryl-1-methylurea sulfate]",1.8,10.1,,,
"CC(C)C(=O)N(C)CC(CCN1CCC2(CC1)c1ccccc1C[S+]2[O-])(c1ccc(Cl)c(Cl)c1)N(C)C(=O)CC(c1ccccc1)c1ccccc1 [Compound No. 2, N-{2-(3,4-dichlorophenyl)-2-[(3,3-diphenylpropionyl)-methylamino]-4-{spiro[benzo(c)thiophene-1(3H),4′-piperidine]-(2S)-oxide}-1′-yl-butyl}-N-methyl-isobutylamide hydrochloride]",2.1,4.3,,,
"CN(CC(CCN1CCC2(CC1)c1ccccc1C[S@+]2[O-])(c1ccc(Cl)c(Cl)c1)N(C)C(=O)NC(c1ccccc1)c1ccccc1)C(=O)C(F)(F)Cl (stereo partly drawn) [Compound No. 4, N-{2-(3-benzohydryl-1-methylureido)-2-(3,4-dichlorophenyl)-4-{spiro[benzo(c)thiophene-1(3H),4′-piperidine]-(2S)-oxide}-1′-yl-butyl}-2-chloro-2,2-difluoro-N-methyl-acetamide hydrochloride]",1.5,3.4,,,
COc1cc(C(=O)N2CCO[C@](CCN3CCCC4(C3)c3ccccc3C[S+]4[O-])(c3ccc(Cl)c(Cl)c3)C2)cc(OC)c1OC (stereo partly drawn) [(D)],,,excellent antagonistic activity,excellent antagonistic activity,
"CN(C[C@@H](CCN1CCC2(CCc3ccccc32)CC1)c1ccc(Cl)c(Cl)c1)C(=O)c1ccccc1 [compound (B), reference compound]",,,,exhibits antagonistic activity only to NK-2 receptor,
"CC(C)C(=O)N(C)C[C@](CCN1CCC2(CC1)NC(=O)Cc1ccccc12)(c1ccc(Cl)c(Cl)c1)N(C)C(=O)NC(c1ccccc1)c1ccccc1 [Compound No. 44, 1-{1-(N-methyl-isobutylamide)-2-(S)-(3,4-dichlorophenyl)-4-[3-oxo-3,4-dihydro-2H-spiro(isoquinoline-1,4′-piperidin)-1′-yl]butan-2-yl}-3-benzhydryl-1-methylureahydrochloride]",2.4,11,,,
"CC(=O)NC1(c2ccccc2)CCN(CCC(CN(C)C(=O)C(F)F)(c2ccc(Cl)c(Cl)c2)N(C)C(=O)NC(c2ccccc2)c2ccccc2)CC1 (stereo not drawn) [Compound No. 12, N-[4-(4-Acetylamino-4-phenyl-piperidine-1′-yl)-2-(3-benzhydryl-1-methyl-ureido)-2-(3,4-dichlorophenyl)-butyl]-2,2-difluoro-N-methyl-acetamide hydrochloride]",6.1,11,,,
"COc1cc(C(=O)N(C)C[C@](CCCN2CCC3(CC2)c2ccccc2C[S@+]3[O-])(c2ccc(Cl)c(Cl)c2)N(C)C(=O)Oc2ccccc2)cc(OC)c1OC [Compound No. 589, phenyl{1-(3,4,5-trimethoxy-N-methylbenzamide)-2-(S)-(3,4-dichlorophenyl)-5-[spiro(benzo(c)thiophene-(2S)-oxido-1(3H),4′-piperidin)-1′-yl]pentan-2-yl}methylcarbamate hydrochloride]",,,,,0.53

# Continued, in another order:
IC50 [1] [nM],"IC50 [2, 5] [nM]",SMILES,antagonistic activity against NK-1 receptor [3],antagonistic activity against NK-2 receptor [4],IC50 [2] [nM]
4,2.1,"CN(C[C@](CCN1CCC2(CC1)c1ccccc1C[S@+]2[O-])(c1ccc(Cl)c(Cl)c1)N(C)C(=O)C(c1ccccc1)c1ccccc1)C(=O)CC(F)(F)F [Compound No. 42, N-{2-(S)-(N-methyl-2,2-diphenylacetamide)-2-(3,4-dichlorophenyl)-4-[spiro(benzo(c)thiophene-(2S)-oxido-1(3H),4′-piperidin)-1′-yl]butyl}-3,3,3-trifluoro-N-methylpropanamido hydrochloride]",,,
2.1,7.7,"CN(C[C@](CCN1CCC2(CC1)NC(=O)Cc1ccccc12)(c1ccc(Cl)c(Cl)c1)N(C)C(=O)C(c1ccccc1)c1ccccc1)C(=O)CC(F)(F)F [Compound No. 43, N-{2-(S)-(N-methyl-2,2-diphenylacetamide)-2-(3,4-dichlorophenyl)-4-[3-oxo-3,4-dihydro-2H-spiro(isoquinoline-1,4′-piperidin)-1′-yl]butyl}-3,3,3-trifluoro-N-methylpropanamido hydrochloride]",,,
1.9,6.3,"CCC(=O)N(C)CC(CCN1CCC2(CC1)c1ccccc1C[S+]2[O-])(c1ccc(Cl)c(Cl)c1)N(C)C(=O)CC(c1ccccc1)c1ccccc1 [Compound No. 5, N-{2-(3,4-dichlorophenyl)-2-[(3,3-diphenylpropionyl)-methylamino]-4-{spiro[benzo(c)thiophene-1(3H),4′-piperidine]-(2S)-oxide}-1′-yl-butyl}-N-methyl-propionamide hydrochloride]",,,
1.6,1.2,"CN(CC(CCN1CCC2(CC1)c1ccccc1C[S+]2[O-])(c1ccc(Cl)c(Cl)c1)N(C)C(=O)CC(c1ccccc1)c1ccccc1)C(=O)CC(F)(F)F [Compound No. 1, N-{2-(3,4-dichlorophenyl)-2-[(3,3-diphenylpropionyl)-methylamino]-4-{spiro[benzo(c)thiophene-1(3H),4′-piperidine]-(2S)-oxide}-1′-yl-butyl}-3,3,3-trifluoro-N-methyl-propionamide hydrochloride]",,,
2.8,4.9,"CC(C)C(=O)N(C)C[C@](CCN1CCC2(CC1)c1ccccc1C[S@+]2[O-])(c1ccc(Cl)c(Cl)c1)N(C)C(=O)CC(c1ccccc1)c1ccccc1 [Compound No. 45, N-{2-(S)-(N-methyl-3,3-diphenylpropanamido)-2-(3,4-dichlorophenyl)-4-[spiro(benzo(c)thiophene-(2S)-oxido-1(3H),4′-piperidin)-1′-yl]butyl}-N-methyl-isobutylamide hydrobromide]",,,
